Experimental data: patent US5721366A, “Platelet aggregation inhibitors” (G. D. Searle & Co, priority 1995, dated 1998)
Counter-ions that a name gives are not always drawn.

What was measured:
[1] = test system: Human platelet aggregation (platelet-rich plasma); assay: Inhibition of Human Platelet Aggregation (PRP), collagen-induced; assay type: cell-based; details: Homo sapiens, Platelet, collagen-induced aggregation (4 μg/ml final), 37° C.
Method: Inhibition of Human Platelet Aggregation (PRP)
Platelet rich plasma was prepared from citrated whole blood (3.8% Na citrate, 1:10 in 30 ml blood) withdrawn from the antecubital vein (n=1). PRP was prepared by centrifugation (Sorvall RC3C, DuPont, Wilmington, Del.) of the whole blood at 1000×g for 3 min, allowing the centrifuge to stop without braking. Platelet poor plasma (PPP) was prepared by centrifugation of PRP at 2000×g for 10 min. […] Aggregation was measured in a 4 channel aggregometer (model PAP-4C, Bio/Data Corp., Hatboro, Pa.). Aliquots of PPP were used to standardize the aggregometer for measurement of maximum light transmission. Platelet aggregation was measured as an increase in light transmission.
PRP (430 μl aliquot) was preincubated with 50 μl of various concentrations of compound (dissolved in 10% ETOH/water at a concentration of 10^-3 M. Compounds were diluted to desired concentration with 0.9% NaCl) for 2 min at 37° C., with stirring at 900 rpm, in the aggregometer. The stock collagen (Chronolog, Havertown, Pa., equine tendon) was diluted 1:10 with a 5% dextrose and water solution. The vehicle control response was obtained by adding 20 μl diluted collagen to the untreated aliquot of PRP+50 μl saline. Final collagen concentration was 4 μg/ml. Aggregation was recorded for 3 min following the addition of collagen. […] Percent inhibition was calculated by comparing treated and control samples. IC50 's were calculated graphically from dose-response curves. Average values and standard errors were calculated using the IC50 's of the individual experiments. Statistical analyses were done by an unequal variance, unpaired Student's t-test [Minitab Reference Manual, Minitab Inc., State College, Pa. (1988)]. Statistical significance was assumed when p<0.05 was found.
(§1) (NT in the following table indicates not tested.)

[2] = test system: Dog platelet aggregation (platelet-rich plasma); assay: In-Vitro Platelet Aggregation in PRP (Dog), collagen-induced; assay type: cell-based; details: Canis lupus familiaris, Platelet, collagen-induced aggregation (33 μg/ml final), 37° C.
Method: In-Vitro Platelet Aggregation in PRP--(Dog)
Healthy male or female dogs were fasted for 8 hours prior to drawing blood; then 60 ml whole blood was collected using a butterfly needle and 30 cc plastic syringe with 6 ml of 0.129M buffered sodium citrate (3.8%) (drawn from a minimum of 3 dogs and blood was pooled). The syringe was rotated carefully as blood was drawn to mix the citrate. Platelet-rich plasma (PRP) was prepared by centrifugation at 975×g for 3.17 minutes at room temperature, allowing the centrifuge to coast to a stop without braking. The PRP was removed from the blood with a plastic pipette and placed in a plastic capped 50 ml Corning conical sterile centrifuge tube which was held at room temperature. Platelet poor plasma (PPP) was prepared by centrifuging the remaining blood at 2000×g for 15 minutes at room temperature allowing the centrifuge to coast to a stop without braking. The platelet count in the PRP was routinely 2-4×10^8 platelets per ml. 400 μl of the PRP preparation and 50 μl of the compound to be tested or saline were preincubated for 2 minutes at 37° C. in a BioData aggregometer (BioData, Horsham, Pa.). 50 μl of collagen (diluted 1:3 with 5% dextrose and water solution, 33 μg/ml final concentration, equine tendon, Chronolog, Havertown, Pa.) was added to the cuvettes and the aggregation was monitored for 3 minutes. All compounds are tested in duplicate.
Results are calculated as follows:
Percent of control=[(maximal OD minus initial OD of compound) divided by (maximal OD minus initial OD of control saline)]×100. The % inhibition=100-(percent of control).
as §1

N=C(N)c1ccc(N2CCC(CC(=O)NC[C@H](NC(=O)OCc3ccccc3)C(=O)O)C2=O)cc1 (stereo partly drawn) [Example 16, 3-[[[1-[4-(aminoiminomethyl)phenyl]-2-oxo-3-pyrrolidinyl]acetyl]amino]-N-[(phenylmethoxy)carbonyl]-L-alanine]
IC50 [1]: 0.31 µM
IC50 [2]: 0.1 µM

C=C[C@H](CC(=O)O)NC(=O)NC1CCN(c2ccc(C(=N)N)cc2)C1=O (stereo partly drawn) [Example 18, 3(S)-[[[[1-[4-(aminoiminomethyl]phenyl]-2-oxo-3-pyrrolidinyl]amino]carbonyl]amino]-4-pentenoic acid]
IC50 [1]: 0.1 µM
IC50 [2]: 0.17 µM

C[C@@H](CCCC1CCN(c2ccc(C(=N)N)cc2)C1=O)CC(=O)O (stereo partly drawn) [Example 19, 1-[4-(aminoiminomethyl)phenyl]-βS-methyl-2-oxo-3-pyrrolidinehexanoic acid, monohydrochloride.]
IC50 [1]: 0.09 µM
IC50 [2]: 0.15 µM

N=C(N)c1ccc(N2CCCC(CC(=O)NC(C#Cc3ccccc3)CC(=O)O)C2=O)cc1 (stereo not drawn) [Example 28, 3-[[[1-[4-(aminoiminomethyl)phenyl]-2-oxo-3-piperidinyl]acetyl]amino]-5-phenyl-4-pentynoic acid.]
IC50 [1]: 0.19 µM
IC50 [2]: 0.17 µM

CC(CC(=O)O)NC(=O)CC1CCCN(c2ccc(C(=N)N)cc2)C1=O (stereo not drawn) [Example 30, 3-[[[1-[4-(aminoiminomethyl)phenyl]-2-oxo-3-piperidinyl]acetyl]amino]-butanoic acid]
IC50 [1]: 0.28 µM
IC50 [2]: 0.38 µM

N=C(N)c1ccc(N2CCCC(CC(=O)NC(CC(=O)O)c3ccccc3)C2=O)cc1 (stereo not drawn) [Example 32, 3-[[[1-[4-(aminoiminomethyl)phenyl]-2-oxo-3-piperidinyl]acetyl]amino]-3-phenylpropanoic acid]
IC50 [1]: 0.16 µM
IC50 [2]: 0.25 µM
